Experimental data reported in ChEMBL document CHEMBL3046480, “Synthesis of damnacanthal, a naturally occurring 9,10-anthraquinone and its analogues, and its biological evaluation against five cancer cell lines” (Med Chem Res, 2013).
The source made the active and inactive calls. No cut-off for these calls is given here.

What was measured:
[1] = Cytotoxicity against Homo sapiens (human) MES-SA/Dx5 cells assessed as inhibition of cell survival after 96 hr by MTT assay; assay type: functional, cell-based
[2] = Cytotoxicity against Homo sapiens (human) H460 cells assessed as inhibition of cell survival after 96 hr by MTT assay; assay type: functional, cell-based, NCI-H460
MES-SA = experiment: Cytotoxicity against Homo sapiens (human) MES-SA cells assessed as inhibition of cell survival after 96 hr by MTT assay; assay type: functional, cell-based
[3] = Antioxidant activity measured after 3 min by ferric thiocyanate method; assay type: functional
DU-145 = experiment: Cytotoxicity against Homo sapiens (human) DU145 cells assessed as inhibition of cell survival after 96 hr by MTT assay; assay type: functional, cell-based
MCF7 = experiment: Cytotoxicity against Homo sapiens (human) MCF7 cells assessed as inhibition of cell survival after 96 hr by MTT assay; assay type: functional, cell-based
[4] = Antioxidant activity measured after 10 min by thiobarbituric acid method; assay type: functional
[5] = Homo sapiens, DU-145, 96 h, read-out: IC50
[6] = Homo sapiens, MCF7, 96 h, read-out: IC50
[7] = Homo sapiens, NCI-H460, 96 h, read-out: IC50
[8] = Homo sapiens, MES-SA/Dx5, 96 h, read-out: IC50
[9] = Homo sapiens, MES-SA, 96 h, read-out: IC50

Molecule | IC50 ([1]; mes-sa/dx5) | IC50 ([2]; nci-h460) | IC50 (MES-SA; mes-sa) | Activity [3] | IC50 (DU-145; du-145) | IC50 (MCF7; mcf7) | IC50 (DU-145; [5]) | IC50 (MCF7; [6]) | IC50 [2, 7] | Activity [4] | IC50 [1, 8] | IC50 (MES-SA; [9])
COc1cc2c(c(OC)c1C)C(=O)c1ccccc1C2=O | Not Active | Not Active | Not Active | inactive | Not Active | Not Active |  |  |  |  |  | 
COc1c(C)c(OC(C)=O)cc2c1C(=O)c1ccccc1C2=O | Not Active | Not Active | Not Active | inactive |  |  | 27 µM | 26 µM |  |  |  | 
O=C1c2ccccc2C(=O)c2cc(Br)c(O)cc21 | Not Active | Not Active | Not Active | inactive | Not Active | Not Active |  |  |  |  |  | 
COc1c(CBr)c(OC(C)=O)cc2c1C(=O)c1ccccc1C2=O | Not Active |  | Not Active | inactive |  |  | 5 µM | 6 µM | 26 µM |  |  | 
Cc1ccc(O)c2c1C(=O)c1ccccc1C2=O | Not Active | Not Active | Not Active | inactive | Not Active | Not Active |  |  |  |  |  | 
VITAMIN E |  |  |  | Active |  |  |  |  |  |  |  | 
O=C1c2ccccc2C(=O)c2c(O)ccc(O)c21 [QUINIZARIN] | Not Active | Not Active | Not Active | inactive | Not Active | Not Active |  |  |  |  |  | 
O=C1c2ccccc2C(=O)c2c1ccc(O)c2O |  |  |  | Active |  |  |  |  |  | Active |  | 
O=C1c2ccccc2C(=O)c2c(O)cc(O)cc21 [XANTHOPURPURIN] |  |  |  | inactive |  |  | 29 µM | 55 µM | 23 µM |  | 21 µM | 30 µM
O=Cc1c(O)cc2c(c1O)C(=O)c1ccccc1C2=O | Not Active |  |  | Active |  |  | 42 µM | 36 µM | 40 µM | Active |  | 18 µM
Cc1cc(C(C)(C)C)c(O)c(C(C)(C)C)c1 |  |  |  | Active |  |  |  |  |  |  |  | 
COc1c(C=O)c(O)cc2c1C(=O)c1ccccc1C2=O [DAMNACANTHAL] | Not Active |  | Not Active | Active |  |  | 26 µM | 11 µM | 25 µM | Active |  | 
O=C1c2ccccc2C(=O)c2c(O)cc(Br)cc21 | Not Active | Not Active | Not Active | inactive | Not Active | Not Active |  |  |  |  |  | 
COc1cc2c(c(OC)c1C(Br)Br)C(=O)c1ccccc1C2=O |  |  |  | inactive |  |  | 28 µM | 27 µM | 23 µM |  | 7 µM | 10 µM
CC(=O)Oc1cc2c(c(O)c1C)C(=O)c1ccccc1C2=O | Not Active |  | Not Active | inactive |  |  | 37 µM | 56 µM | 68 µM |  |  | 
COc1cc2c(c(OC)c1CBr)C(=O)c1ccccc1C2=O |  |  |  | inactive |  |  | 4 µM | 8 µM | 5 µM |  | 2 µM | 2 µM

Molecule | IC50 ([1]; mes-sa/dx5) | IC50 ([2]; nci-h460) | IC50 (MES-SA; mes-sa) | Activity [3] | IC50 (DU-145; du-145) | IC50 (MCF7; mcf7) | IC50 (DU-145; [5]) | IC50 (MCF7; [6]) | IC50 [2, 7] | Activity [4] | IC50 [1, 8] | IC50 (MES-SA; [9])
COc1c(C=O)c(O)c(Br)c2c1C(=O)c1ccccc1C2=O | Not Active |  | Not Active | inactive |  |  | 34 µM | 19 µM | 32 µM |  |  | 
COc1cc2c(c(OC)c1C=O)C(=O)c1ccccc1C2=O | Not Active |  |  | inactive |  |  | 32 µM | 55 µM | 65 µM |  |  | 5 µM
COc1ccc(OC)c2c1C(=O)c1ccccc1C2=O [1,4-DIMETHOXYANTHRAQUINONE] | Not Active |  | Not Active | inactive |  |  | 69 µM | 70 µM | 71 µM |  |  | 
O=C1c2ccccc2C(=O)c2c(Br)cc(O)cc21 |  |  |  | inactive |  |  | 44 µM | 27 µM | 43 µM |  | 29 µM | 56 µM
CCOCc1c(OC(C)=O)cc2c(c1OC)C(=O)c1ccccc1C2=O | Not Active | Not Active | Not Active | inactive |  |  | 23 µM | 30 µM |  |  |  | 
O=C1c2ccccc2C(=O)c2c(Br)ccc(O)c21 |  |  |  | inactive |  |  | 27 µM | 36 µM | 20 µM |  | 20 µM | 14 µM
COc1ccc(O)c2c1C(=O)c1ccccc1C2=O | Not Active |  | Not Active | inactive |  |  | 74 µM | 79 µM | 82 µM |  |  | 
COc1ccc2c(c1)C(=O)c1ccccc1C2=O [2-METHOXYANTHRAQUINONE] | Not Active |  | Not Active | inactive |  |  | 70 µM | 68 µM | 68 µM |  |  | 
Cc1c(O)c(Br)c2c(c1O)C(=O)c1ccccc1C2=O |  |  |  | inactive |  |  | 31 µM | 28 µM | 19 µM |  | 30 µM | 20 µM
COc1cc2c(c(O)c1CBr)C(=O)c1ccccc1C2=O | Not Active |  |  | inactive |  |  | 26 µM | 34 µM | 30 µM |  |  | 4 µM
O=C1c2ccccc2C(=O)c2cc(O)ccc21 [2-HYDROXYANTHRAQUINONE] | Not Active |  | Not Active | inactive |  |  | 72 µM | 69 µM | 66 µM |  |  | 
Cc1c(O)cc2c(c1O)C(=O)c1ccccc1C2=O [Rubiadin] |  |  |  | inactive |  |  | 32 µM | 56 µM | 42 µM |  | 35 µM | 38 µM
CCOCc1c(O)cc2c(c1OC)C(=O)c1ccccc1C2=O | Not Active | Not Active | Not Active | inactive |  |  | 50 µM | 35 µM |  |  |  | 
CCOCc1c(OC)cc2c(c1OC)C(=O)c1ccccc1C2=O | Not Active | Not Active | Not Active | inactive | Not Active | Not Active |  |  |  |  |  | 
COc1ccc(C)c2c1C(=O)c1ccccc1C2=O | Not Active |  |  | inactive |  |  | 48 µM | 55 µM | 54 µM |  |  | 19 µM
O=C1c2ccccc2C(=O)c2c(O)cccc21 [1-HYDROXYANTHRAQUINONE] | Not Active | Not Active | Not Active | inactive | Not Active | Not Active |  |  |  |  |  | 
